Values joined by “and” are separate entries in the source; they are usually repeats but may differ in a detail not shown here. Equal values may be shown once.
Assay: xn = mol fraction of the nth substance listed

CCCCCCC + CCCO
Conditions	viscosity
298.15 K, 101.33 kPa, x2 = 0.7478	0.999 mPa·s
298.15 K, 101.33 kPa, x2 = 0.7849	1.154 mPa·s
298.15 K, 101.33 kPa, x2 = 0.8202	1.187 mPa·s
298.15 K, 101.33 kPa, x2 = 0.879	1.447 mPa·s
298.15 K, 101.33 kPa, x2 = 0.9458	1.659 mPa·s
298.15 K, 101.33 kPa, x2 = 0.967	1.811 mPa·s
303.15 K, 101 kPa, x1 = 0.0164	1.609 mPa·s
303.15 K, 101 kPa, x1 = 0.102	1.319 mPa·s
303.15 K, 101 kPa, x1 = 0.2018	1.047 mPa·s
303.15 K, 101 kPa, x1 = 0.299	0.8669 mPa·s
303.15 K, 101 kPa, x1 = 0.4005	0.7025 mPa·s
303.15 K, 101 kPa, x1 = 0.5017	0.5949 mPa·s
303.15 K, 101 kPa, x1 = 0.6033	0.5056 mPa·s
303.15 K, 101 kPa, x1 = 0.7025	0.4543 mPa·s
303.15 K, 101 kPa, x1 = 0.801	0.4254 mPa·s
303.15 K, 101 kPa, x1 = 0.8918	0.3943 mPa·s
303.15 K, 101 kPa, x2 = 0.0637	0.364 mPa·s and 0.344 mPa·s
303.15 K, 101 kPa, x2 = 0.1192	0.374 mPa·s
303.15 K, 101 kPa, x2 = 0.2374	0.415 mPa·s
303.15 K, 101 kPa, x2 = 0.3198	0.444 mPa·s
303.15 K, 101 kPa, x2 = 0.4121	0.496 mPa·s
303.15 K, 101 kPa, x2 = 0.5026	0.569 mPa·s
303.15 K, 101 kPa, x2 = 0.6029	0.674 mPa·s
303.15 K, 101 kPa, x2 = 0.6539	0.742 mPa·s
303.15 K, 101 kPa, x2 = 0.6876	0.785 mPa·s
303.15 K, 101 kPa, x2 = 0.7445	0.889 mPa·s
303.15 K, 101 kPa, x2 = 0.7867	0.975 mPa·s
303.15 K, 101 kPa, x2 = 0.8298	1.096 mPa·s
303.15 K, 101 kPa, x2 = 0.884	1.23 mPa·s
303.15 K, 101 kPa, x2 = 0.9695	1.544 mPa·s
308.15 K, 101 kPa, x1 = 0.102	1.189 mPa·s
308.15 K, 101 kPa, x1 = 0.2018	0.9659 mPa·s
308.15 K, 101 kPa, x1 = 0.299	0.7776 mPa·s
308.15 K, 101 kPa, x1 = 0.4005	0.6444 mPa·s
308.15 K, 101 kPa, x1 = 0.5017	0.5454 mPa·s
308.15 K, 101 kPa, x1 = 0.6033	0.4781 mPa·s
308.15 K, 101 kPa, x1 = 0.7025	0.4308 mPa·s
308.15 K, 101 kPa, x1 = 0.801	0.3988 mPa·s
308.15 K, 101 kPa, x1 = 0.8918	0.3783 mPa·s
308.15 K, 101 kPa, x2 = 0.1596	0.36 mPa·s
308.15 K, 101 kPa, x2 = 0.2647	0.399 mPa·s
308.15 K, 101 kPa, x2 = 0.3436	0.435 mPa·s
308.15 K, 101 kPa, x2 = 0.4385	0.489 mPa·s
308.15 K, 101 kPa, x2 = 0.5026	0.532 mPa·s
308.15 K, 101 kPa, x2 = 0.5659	0.584 mPa·s
308.15 K, 101 kPa, x2 = 0.6029	0.619 mPa·s
308.15 K, 101 kPa, x2 = 0.6877	0.728 mPa·s
308.15 K, 101 kPa, x2 = 0.7447	0.817 mPa·s
308.15 K, 101 kPa, x2 = 0.7867	0.909 mPa·s
308.15 K, 101 kPa, x2 = 0.884	1.158 mPa·s
308.15 K, 101 kPa, x2 = 0.9695	1.444 mPa·s
308.15 K, 101.33 kPa, x1 = 0.0127	1.506 mPa·s
308.15 K, 101.33 kPa, x2 = 0.0468	0.3551 mPa·s
308.15 K, 101.33 kPa, x2 = 0.0989	0.36 mPa·s
308.15 K, 101.33 kPa, x2 = 0.2079	0.3821 mPa·s
308.15 K, 101.33 kPa, x2 = 0.2621	0.4018 mPa·s
308.15 K, 101.33 kPa, x2 = 0.362	0.4432 mPa·s
308.15 K, 101.33 kPa, x2 = 0.4569	0.492 mPa·s
308.15 K, 101.33 kPa, x2 = 0.5667	0.5902 mPa·s
308.15 K, 101.33 kPa, x2 = 0.6636	0.7 mPa·s
308.15 K, 101.33 kPa, x2 = 0.7478	0.8319 mPa·s
308.15 K, 101.33 kPa, x2 = 0.8202	0.98 mPa·s
308.15 K, 101.33 kPa, x2 = 0.9458	1.347 mPa·s

— the CheMixHub viscosity set
